Laboratory results: patent publication US6090987A, “Metal-ligand complex catalyzed processes” (Union Carbide Chemicals & Plastics Technology Corporation, priority 1998, dated 2000)

How the values were obtained:
[1] = Long term catalyst stability, cycling between hydroformylation and simulated vaporizer conditions (Table 2, FIG. 2); settings: for Percent Deactivation/Day: butadiene 2 psi
Protocol: A series of long term catalyst stability experiments were conducted in the glass reactors in a continuous propylene hydroformylation mode. The reactor consisted of a three ounce pressure bottle submersed in an oil bath with a glass front for viewing. In each example about 20 milliliters of a freshly prepared rhodium catalytic precursor solution was charged to the reactor with a syringe after purging the system with nitrogen. Each precursor solution contained 200 parts per million of rhodium (calculated as free rhodium) introduced as rhodium dicarbonyl acetylacetonate, Ligand F and tetraglyme. The amount of Ligand F (free) employed was 0.4 weight percent.
After closing the reactor, the system was again purged with nitrogen and the oil bath was heated to 80° C., in order to furnish the desired hydroformylation. The hydroformylation reaction in each experiment was conducted at a total gas pressure of about 165 psig, the target partial pressure pressures of hydrogen, carbon monoxide, and propylene being about 45 psia, 45 psia, and 5 psia, respectively, the remainder being nitrogen. The flows of the feed gases (carbon monoxide, hydrogen, propylene, and nitrogen) were controlled individually with mass flow meters. The feed gases were dispersed into the precursor solution via stainless steel 7-micron filters used as spargers. The unreacted portion of the feed gases stripped out the product aldehydes. Examples 14, 15 and 16 were conducted at 80° C. for 2 hours. The feed gases were then turned off and either pure nitrogen or an 88 mole percent nitrogen, 12 mole percent butadiene mixture was fed to the reactor (see Table 2). The pressure of the reactor was then let down to the appropriate pressure so that the target butadiene pressure in the reactor could be achieved. The oil bath temperature was then ramped to 125° C. over a 5 minute period. The bath remained at 125° C. for 10 minutes. The bath was then cooled to 80° C. over a 6 minute period. […]

[2] = Decomposition of free Ligand F and deactivated complex formation at 145° C. by HPLC (FIG. 3); format: physicochemical; settings: for deactivated complex concentration / free Ligand F concentration: 45 psig, treated with 1 ml 1,3-butadiene
Protocol: A catalyst solution (5 milliliters), 600 parts per million in rhodium and 0.8 weight percent in Ligand F generated as in Example 2 was charged to a 3 ounce Fisher Porter bottle and alternately flushed evacuated with nitrogen, then placed in a 145° C. oil bath under nitrogen (80 psig total pressure) and then monitored by HPLC at 1 and 3 hours for the Ligand F and deactivated complex concentrations. The free Ligand F concentration was 0.75, 0.57 and 0.37 weight percent at 0, 1 and 3 hours, respectively, while the deactivated complex concentration was 0.010, 0.57 and 0.89 weight percent at 0, 1 and 3 hours respectively.
The same procedure as in Example 21 was followed except the catalyst solution was treated with 1 milliliter of 1,3-butadiene and then heated at 145° C. for 3 hours (45 psig total pressure). The free Ligand F concentration measured by HPLC (high pressure liquid chromatography) was 0.75, 0.66, and 0.62 weight percent at 0, 1 and 3 hours, respectively, while the deactivated complex concentration was 0.010, 0.012, and 0.05 weight percent at 0, 1 and 3 hours respectively.

[3] = Propylene hydroformylation rate and colour of (TPP)3 Rh(CO)H catalyst after thermal treatment; settings: for hydroformylation rate: 100° C.
Protocol: TPP is triphenylphosphine. 15 grams of this bright yellow solution was charged to a Fisher Porter bottle under inert gas. To this solution was added 20 psi of butadiene with stirring. The pressure dropped as the butadiene dissolved into the solution. The reactor was repressured twice with butadiene (20 psig) and then the reaction was place under a total of 45 psig with nitrogen. The solution was heated to 120° C. for 15 minutes. […] At ambient temperature, the reaction was placed under vacuum for 4 hours to remove any excess butadiene.
Since the solvent has a very high boiling point, the concentration of rhodium was assumed to have remained unchanged while under vacuum. Indeed, no change in volume was detected visually while under vacuum. 15.0 milliliters of the 275 parts per million solution was charged to a 100 milliliter autoclave.
This example is a control for Example 23. 15 grams of the catalyst solution prepared in Example 23 was charged to a Fisher Porter bottle under inert gas. 45 psig of nitrogen was added to the reaction vessel, then the reaction was heated to 120° C. for 15 minutes. […] 15.0 milliliters of the 275 parts per million solution was charged to a 100 milliliter autoclave.
A catalyst solution was prepared by adding 113 milligrams of (TPP)3 Rh(CO)H to 40.4 grams Filmer IBT® available from Union Carbide Corporation, Danbury, Conn., resulting in a rhodium concentration of 312 parts per million. At this point, the rhodium complex was a suspended in the solvent. Approximately 20 grams of this solution of (TPP)3 Rh(CO)H in tetraglyme was charged to a Fisher Porter bottle under inert gas. To this solution was added 30 psi of butadiene with stirring. The pressure dropped to 20 psig as the butadiene dissolved into the solution. The reactor was repressured twice with butadiene (30 psig) and then the pressure was adjusted to 60 psig with nitrogen. The solution was placed into 140° C. oil bath, which caused the reaction to become homogeneous within a minute. The reaction was maintained at 140° C. for 50 minutes. […] The reaction vessel was removed from the oil bath and the butadiene was vented from the reactor while the reaction was hot. After gas evolution ceased, the reaction vessel was placed carefully placed under dynamic vacuum until gas evolution had ceased for 10 minutes. The reaction was then placed under a slight positive pressure of nitrogen. […] 15.0 milliliters of the 284 parts per million solution was charged to a 100 milliliter autoclave.
This example serves as a control for Example 25. Approximately 20 grams of the solution prepared in Example 25 was charged to a Fisher Porter bottle under inert gas. 60 psig of nitrogen was added to the reaction vessel, then the reaction was heated to 140° C. for approximately 110 minutes. […] This solution was place into and out of the oil bath at the same time as the solution in Example 25. After thermal treatment, 10 weight percent of triphenylphosphine was added to the reaction mixture. […] 15 milliliters of the 284 parts per million solution was charged to a 100 milliliter autoclave.

## C=CC=C [Butadiene, 1,3-butadiene]
[1]; cycling between 80° C. hydroformylation and 125° C. simulated vaporizer
  influence on the catalyst (FIG. 2): stabilizing influence
[1]; separation temperature 125° C., butadiene/Rh molar ratio 45
  Percent Deactivation/Day: 5 Percent/Day
[1]; separation temperature 135° C., butadiene/Rh molar ratio 55
  Percent Deactivation/Day: 5 Percent/Day
[2]; 0 hours
  deactivated complex concentration: 0.010 weight percent
  free Ligand F concentration: 0.75 weight percent
[2]; 1 hour
  deactivated complex concentration: 0.012 weight percent
  free Ligand F concentration: 0.66 weight percent
[2]; 3 hours
  deactivated complex concentration: 0.05 weight percent
  free Ligand F concentration: 0.62 weight percent
[2]; prior complexation of catalyst with butadiene
  decomposition of free Ligand F (FIG. 3): suppresses decomposition of free Ligand F
[3]; 120° C. for 15 minutes under butadiene/nitrogen
  color change of catalyst solution: No color change was observed
[3]; 140° C. for 50 minutes under butadiene/nitrogen
  color of catalyst solution: maintained a bright yellow color
[3]; 140° C. for further 60 minutes, butadiene removed
  color change of catalyst solution: no observable color change
[3]; after 120° C. for 15 minutes with butadiene, 275 ppm Rh, 9.1 wt% triphenylphosphine, 115 psig
  hydroformylation rate: 1.4 gmol/L-h
[3]; after 140° C. for 50 minutes with butadiene and 60 minutes after venting, 284 ppm Rh, 95 psig
  hydroformylation rate: 1.0 gmol/L-h
